Laboratory results taken from patent US9952217B2, “Anti-HBc quantitative detection method and uses thereof in monitoring and controlling disease progression of chronic hepatitis B patient and in predicting therapeutic effect” (priority 2012, dated 2018).

System: hepatitis B virus
Assay: Adefovir dipivoxil therapy of HBeAg positive chronic hepatitis B patients (Cohort A)
Assay type: in vivo, human
Procedure: Patient cohort A: 49 HBeAg positive patients, all patients accepted therapy of adefovir dipivoxil (10 mg/day), for 96 weeks in total, and were follow-up visited for 12 weeks after stop of therapy.
The above patients before therapy all met the criteria of disease adaptable for therapy as recommended by the Guide of Clinical Management of Chronic Hepatitis B of APASL: HBsAg was positive for consecutive 1 year or more, HBeAg was positive and anti-HBe was negative, serum ALT level was higher than 2 times of ULN; the patients were chosen to exclude possibility of having accompanied infection of hepatitis C virus (HCV), human immunodeficiency virus (HIV), hepatitis D virus (HDV), hepatitis E virus (HEV), and have no clinical medicine evidence of having accompanied autoimmune or metabolic liver diseases.
It was performed according to the method described in section 4.2 of Example 4.
It was performed according to the method described in section 4.3 of Example 4.
Main therapeutic end was defined when HBeAg seroconversion occurred at follow-up visit end.
All statistic methods were performed according to those described in Example 4.

## CC(C)(C)C(=O)OCOP(=O)(COCCn1cnc2c(N)ncnc21)OCOC(=O)C(C)(C)C [adefovir dipivoxil]
108 weeks versus therapy end (96 weeks)
  average increase (bounce) of serum anti-HBc level after therapy: 0.29 log10 IU/ml
HBc-High group (baseline anti-HBc ≥29000 IU/ml, n=16)
  decrease of average HBV DNA level at follow-up end versus before therapy: 3.48±2.24 log10 copies/mL
HBc-Low group (baseline anti-HBc <29000 IU/ml, n=33)
  decrease of average HBV DNA level at follow-up end versus before therapy: 1.69±2.05 log10 copies/mL
All 49 patients, 10 mg/day for 96 weeks, follow-up 12 weeks after stop
  therapeutic effective rate (HBeAg seroconversion at follow-up visit end): 18.4%
Baseline anti-HBc 9000-29000 IU/ml (n=19)
  response rate (HBeAg seroconversion after therapy): 10.5%
Baseline anti-HBc <9000 IU/ml (16 patients as printed)
  patients with HBeAg seroconversion after therapy: none
Baseline anti-HBc ≥29000 IU/ml, three-group analysis
  response rate (HBeAg seroconversion after therapy): 43.8%
Baseline to 60 weeks after beginning of therapy
  decline of average serum anti-HBc level per 12 weeks: 0.20±0.05 log10 IU/mL
Cutoff 29000 IU/ml baseline anti-HBc
  ratio of occurrence rates (Risk Ratio, RR) of HBeAg seroconversion between high and low anti-HBc groups: 7.22
Patients with baseline anti-HBc greater than 29000 IU/ml (n=16)
  effective rate (HBeAg seroconversion at follow-up visit end): 43.8%
Patients with baseline anti-HBc less than 29000 IU/ml (n=33)
  effective rate (HBeAg seroconversion at follow-up visit end): 6.1%
